The text below walks through data of US20250360164A1, “METHOD FOR REDUCING THE INCIDENCE OF PECTORAL MYOPATHY IN POULTRY FEED” (CAN TECHNOLOGIES, INC., priority 2017, published 2025).

The conditions of series [1]: nitrate dosage up to at least 400 mg/kg body weight, starter and grower phases. As for the experimental part:
The amount of one or more nitrates, one or more nitrites, or a mixture thereof fed to the poultry in the feed compositions and/or methods described herein can also be expressed in mg of nitrates and/or nitrites per kg body weight of the poultry. In some embodiments, the nitrate/nitrite amount in the feed composition is less than 500 mg/kg, less than 450 mg/kg, less than 400 mg/kg, or less than 300 mg/kg. In some embodiments, the nitrate/nitrate amount in the feed composition is in the range of 10 to 500 mg/kg, 10 to 400 mg/kg; 10 to 300 mg/kg; 25 to 400 mg/kg; 25 to 200 mg/kg; 50 to 400 mg/kg; 50 to 150 mg/kg; or 100 to 400 mg/kg.

The subject of series [2] is wooden breast. The following applies: previous state-of-the-art, poster 450 P, 2015; cited from earlier work.

Regarding `O=[N+]([O-])[O-].O=[N+]([O-])[O-].[Ca+2]` [calcium nitrate], in series [1], the effect on growth result is listed as “does not negatively affect growth” and the nitrate poisoning entry is reported as “does not cause nitrate poisoning”.
`N=C(N)NCCC[C@H](N)C(=O)O` [arginine]: in series [2], the “reduction of wooden breast” value is reported as “inefficient in providing effective reduction”.
